We go through eight sequences from patent US9056890B2, “WDHD1 peptides and vaccines including the same” (OncoTherapy Science Inc., priority 2010, dated 2015).

Entries after “also recorded” stand apart in the source; their conditions may differ.

Experiment [1] concerns peptide-pulsed TISI cells. In words: IFN-gamma ELISPOT assay on CTLs induced with peptide. Format: cell-based, human. The note with it: CTLs from HLA-A*2402 positive donor after 3rd peptide stimulation, versus target cells not pulsed with peptide. The source says:
Monocyte-derived dendritic cells (DCs) were used as antigen-presenting cells to induce cytotoxic T lymphocyte (CTL) responses against peptides presented on human leukocyte antigen (HLA). DCs were generated in vitro as described elsewhere (Nakahara S et al., Cancer Res 2003, 63(14): 4112-8). Specifically, peripheral blood mononuclear cells isolated from a normal volunteer (HLA-A*2402 positive) by Ficoll-Plaque (Pharmacia) solution were separated by adherence to a plastic tissue culture dish (Becton Dickinson) so as to enrich them as the monocyte fraction. The monocyte-enriched population was cultured in the presence of 1000 U/ml of granulocyte-macrophage colony-stimulating factor (R&D System) and 1000 U/ml of interleukin (IL)-4 (R&D System) in AIM-V Medium (Invitrogen) containing 2% heat-inactivated autologous serum (AS). After 7 days of culture, the cytokine-induced DCs were pulsed with 20 micro-g/ml of each of the synthesized peptides in the presence of 3 micro-g/ml of beta 2-microglobulin for 3 hr at 37 degrees C. in AIM-V Medium. The generated cells appeared to express DC-associated molecules, such as CD80, CD83, CD86 and HLA class II, on their cell surfaces (data not shown). These peptide-pulsed DCs were then inactivated by X-irradiated (20 Gy) and mixed at a 1:20 ratio with autologous CD8+ T cells, obtained by positive selection with CD8 Positive Isolation Kit (Dynal). These cultures were set up in 48-well plates (Corning); each well contained 1.5×10^4 peptide-pulsed DCs, 3×10^5 CD8+ T cells and 10 ng/ml of IL-7 (R&D System) in 0.5 ml of AIM-V/2% AS medium. Three days later, these cultures were supplemented with IL-2 (CHIRON) to a final concentration of 20 IU/ml. On day 7 and 14, the T cells were further stimulated with the autologous peptide-pulsed DCs. The DCs were prepared each time by the same way described above. CTL was tested against peptide-pulsed TISI cells after the 3rd round of peptide stimulation on day 21 (Tanaka H et al., Br J Cancer 2001, 84(1): 94-9; Umano Y et al., Br J Cancer 2001, 84(8): 1052-7; Uchida N et al., Clin Cancer Res 2004, 10(24): 8577-86; Suda T et al., Cancer Sci 2006, 97(5): 411-9; Watanabe T et al., Cancer Sci 2005, 96(8): 498-506).
(§1) Specifically, peptide-pulsed TISI (1×10^4/well) was prepared as stimulator cells. Cultured cells in 48 wells were used as responder cells. IFN-gamma ELISPOT assay and IFN-gamma ELISA assay were performed under manufacture procedure.

Experiment [2] has as its system peptide-pulsed TISI cells. In words: IFN-gamma ELISA assay of CTL lines. Particulars: target cells pulsed with corresponding peptide versus without peptide pulse. It is filed as cell-based, human. The procedure: CTLs were expanded in culture using the method similar to the one described by Riddell et al. (Walter E A et al., N Engl J Med 1995, 333(16): 1038-44; Riddell S R et al., Nat Med 1996, 2(2): 216-23). A total of 5×10^4 CTLs were suspended in 25 ml of AIM-V/5% AS medium with 2 kinds of human B-lymphoblastoid cell lines, inactivated by Mitomycin C, in the presence of 40 ng/ml of anti-CD3 monoclonal antibody (Pharmingen). One day after initiating the cultures, 120 IU/ml of IL-2 were added to the cultures. The cultures were fed with fresh AIM-V/5% AS medium containing 30 IU/ml of IL-2 on days 5, 8 and 11 (Tanaka H et al., Br J Cancer 2001, 84(1): 94-9; Umano Y et al., Br J Cancer 2001, 84(8): 1052-7; Uchida N et al., Clin Cancer Res 2004, 10(24): 8577-86; Suda T et al., Cancer Sci 2006, 97(5): 411-9; Watanabe T et al., Cancer Sci 2005, 96(8): 498-506).
as §1
Background: ELISA stands for enzyme-linked immunosorbent assay.

Experiment [3] concerns peptide-pulsed TISI cells. Description: IFN-gamma ELISA assay of CTL clone established by limiting dilution. Format: cell-based, human. Particulars: target cells pulsed with peptide versus not pulsed; listed as WDHD1-A24-9-844. Here is the method: The dilutions were made to have 0.3, 1, and 3 CTLs/well in 96 round-bottomed micro titer plate (Nalge Nunc International). CTLs were cultured with 1×10^4 cells/well of 2 kinds of human B-lymphoblastoid cell lines, 30 ng/ml of anti-CD3 antibody, and 125 U/ml of IL-2 in a total of 150 micro-l/well of AIM-V Medium containing 5% AS. 50 micro-l/well of IL-2 were added to the medium 10 days later so to reach a final concentration of 125 U/ml IL-2. CTL activity was tested on the 14th day, and CTL clones were expanded using the same method as described above (Uchida N et al., Clin Cancer Res 2004, 10(24): 8577-86; Suda T et al., Cancer Sci 2006, 97(5): 411-9; Watanabe T et al., Cancer Sci 2005, 96(8): 498-506).
as §1

Experiment [4] has as its system COS7 cells transfected with both WDHD1 and HLA-A*2402. In words: Specific CTL activity against target cells expressing WDHD1 and HLA-A*2402. It is filed as cell-based, African green monkey. The note with it: COS7 expressing both WDHD1 and HLA-A*2402; listed as WDHD1-A24-9-844. The source says:
(§2) The cDNA encoding an open reading frame of target genes or HLA-A*2402 was amplified by PCR. The PCR-amplified product was cloned into the expression vector. The plasmids were transfected into COS7, which is the target genes and HLA-A*2402-null cell line, using lipofectamine 2000 (Invitrogen) according to the manufacturer's recommended procedures. After 2 days from transfection, the transfected cells were harvested with versene (Invitrogen) and used as the target cells (5×10^4 cells/well) for CTL activity assay.
(§3) The established CTL lines and clone raised against each peptide were examined for the ability to recognize target cells that express WDHD1 and HLA-A*2402 molecule. […] COS7 cells transfected with either full length of WDHD1 or HLA-A* 2402 were prepared as the controls.

Experiment [5] relates to COS7 cells transfected with either full length of WDHD1 or HLA-A*2402. In words: Specific CTL activity against control target cells. It is filed as cell-based, African green monkey. The note with it: COS7 expressing either HLA-A*2402 or WDHD1 only.
Description: as §2, §3

For EQFWRSVIF [SEQ ID NO: 19], the “peptide specific CTL activity, IFN-gamma production” value (“peptide specific CTL activity” below) in experiment [1] is “potent IFN-gamma production”.
As to GYAICGLAW [SEQ ID NO: 14], the “peptide specific CTL activity” value in experiment [1] is “potent IFN-gamma production”.
On to GYSNTATEW [SEQ ID NO: 13], for which the “peptide specific CTL activity” value in experiment [1] is “potent IFN-gamma production”. In addition, the “IFN-gamma production of CTL lines” value in experiment [2] was “potent IFN-gamma production”. Besides, in experiment [3], the “IFN-gamma production of CTL clone” value is “potent IFN-gamma production”. Besides, the “specific CTL activity of CTL clone” value in experiment [4] is “potent CTL activity; also recorded: specific CTL activity”. Besides, in experiment [5], the “specific CTL activity of CTL clone against controls” value is “no significant specific CTL activity”.
In the case of KQILHGDPL [SEQ ID NO: 8], the “peptide specific CTL activity” value in experiment [1] is “potent IFN-gamma production”.
Turning to KYASRSRKL [SEQ ID NO: 1], in experiment [1] (listed as WDHD1-A24-9-798), the “peptide specific CTL activity” value was “not observed”.
RSVIFHNHL [SEQ ID NO: 6]: the “peptide specific CTL activity” value in experiment [1] is recorded as “potent IFN-gamma production”.
With SYLAWIGFSA [SEQ ID NO: 29], the “peptide specific CTL activity” value in experiment [1] is reported as “potent IFN-gamma production”. For the same sequence, the “IFN-gamma production of CTL lines” value in experiment [2] is listed as “potent IFN-gamma production”.
For the sequence TWSPCGQYL [SEQ ID NO: 12], the “peptide specific CTL activity” value in experiment [1] is listed as “potent IFN-gamma production”. Moreover, the “IFN-gamma production of CTL lines” value in experiment [2] was “potent IFN-gamma production”.
